Where “and” joins values, the source holds several entries; their conditions need not be identical. Identical values can stand only once.
What was measured:
[1] = test system: PC3 cells; test: In vitro cell proliferation assay; format: cell-based, human; conditions: Homo sapiens, PC-3, with PC3 cells; values tied to compounds by order of Table 1
Procedure, shortened: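 PC3 (or MDAMB361.1) cells, ~10^3/well, settled overnight, then exposed to compound for 3 days; viability read by CellTiter-Glo luminescence (RLU). Alternatively, 4-day compound exposure followed by Alamar Blue for 6 h, fluorescence 544/590 nm; EC50 from sigmoidal dose-response fit.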

[2] = target: mTOR enzyme (mTOR(1360-2549)+GBL) (Homo sapiens, UniProt P42345); test: In vitro mTOR kinase assay (TR-FRET); format: biochemical; conditions: 0.25 nM mTOR+GBL, 8 uM ATP; values tied to compounds by order of Table 1; 'x or y' = two alternative values for separated diastereomers of unassigned stereochemistry; read-out: activity level (Ki) in the mTOR kinase assay
Chain of mTOR enzyme (mTOR(1360-2549)+GBL) (P42345 1360-2549, species assumed): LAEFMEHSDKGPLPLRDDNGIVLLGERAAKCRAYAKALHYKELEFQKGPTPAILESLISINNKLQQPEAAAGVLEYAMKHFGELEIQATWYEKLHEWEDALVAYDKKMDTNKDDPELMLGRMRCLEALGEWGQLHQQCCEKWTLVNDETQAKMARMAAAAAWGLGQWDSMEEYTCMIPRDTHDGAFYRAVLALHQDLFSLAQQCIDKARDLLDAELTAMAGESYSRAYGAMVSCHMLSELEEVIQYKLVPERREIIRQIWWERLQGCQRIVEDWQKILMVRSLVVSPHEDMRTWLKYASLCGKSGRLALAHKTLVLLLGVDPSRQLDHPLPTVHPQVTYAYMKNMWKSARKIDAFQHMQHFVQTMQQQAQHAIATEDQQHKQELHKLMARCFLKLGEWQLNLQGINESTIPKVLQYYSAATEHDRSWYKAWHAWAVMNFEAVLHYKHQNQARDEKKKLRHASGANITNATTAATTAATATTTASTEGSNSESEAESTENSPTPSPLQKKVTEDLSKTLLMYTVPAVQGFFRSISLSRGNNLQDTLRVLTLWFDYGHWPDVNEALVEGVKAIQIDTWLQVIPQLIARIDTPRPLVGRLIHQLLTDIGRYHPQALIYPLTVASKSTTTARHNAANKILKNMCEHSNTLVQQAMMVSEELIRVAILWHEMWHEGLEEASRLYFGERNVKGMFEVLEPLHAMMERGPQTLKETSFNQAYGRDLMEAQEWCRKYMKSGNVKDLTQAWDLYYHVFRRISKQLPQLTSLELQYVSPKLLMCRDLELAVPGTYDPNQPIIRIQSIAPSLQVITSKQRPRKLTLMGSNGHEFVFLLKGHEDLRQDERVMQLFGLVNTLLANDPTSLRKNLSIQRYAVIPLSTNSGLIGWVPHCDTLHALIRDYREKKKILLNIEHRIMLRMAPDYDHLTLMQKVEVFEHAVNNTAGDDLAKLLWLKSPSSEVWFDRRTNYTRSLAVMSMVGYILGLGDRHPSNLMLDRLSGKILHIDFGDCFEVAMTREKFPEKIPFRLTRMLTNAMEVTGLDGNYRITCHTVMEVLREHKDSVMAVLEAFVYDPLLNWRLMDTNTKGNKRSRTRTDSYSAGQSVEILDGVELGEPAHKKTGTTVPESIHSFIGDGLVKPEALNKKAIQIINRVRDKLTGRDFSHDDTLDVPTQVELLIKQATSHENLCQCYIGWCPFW
Chain of mTOR enzyme (mTOR(1360-2549)+GBL) (Q9BVC4 whole entry partner, species assumed): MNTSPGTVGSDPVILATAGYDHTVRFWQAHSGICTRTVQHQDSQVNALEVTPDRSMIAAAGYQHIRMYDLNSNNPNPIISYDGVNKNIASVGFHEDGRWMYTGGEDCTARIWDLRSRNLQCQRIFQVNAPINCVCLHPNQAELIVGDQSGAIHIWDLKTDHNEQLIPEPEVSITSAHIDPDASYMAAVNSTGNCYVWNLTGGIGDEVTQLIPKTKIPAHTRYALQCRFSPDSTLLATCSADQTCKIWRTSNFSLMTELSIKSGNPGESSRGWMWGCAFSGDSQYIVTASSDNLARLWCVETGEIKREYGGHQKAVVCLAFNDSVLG
Procedure, shortened: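 Compounds were tested in 10-point dose curves from 10 uM top final concentration. The reaction was stopped with 2 nM Tb-anti-p4E-BP1 (T37/T46) antibody plus 10 mM EDTA for 30 minutes, and phospho-4E-BP1 was detected by TR-FRET. Ki apparent was fitted with the Morrison ATP-competitive tight-binding equation.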

| Compound | EC50 [1] [nM] | Ki [2] |
| --- | --- | --- |
| COCC[C@]1(C)OCc2c(N3CCOC[C@@H]3C)nc(-c3ccc4nc(N)[nH]c4c3)nc21 [Example 124 hv^1] | 577 | 24 nM and 81 nM |
| C[C@H]1COCCN1c1nc(-c2ccc(NC(=O)Nc3cnn(C)c3)cc2)nc2c1CCC1(CC1)O2 [Example 50, (S)-1-(1-methyl-1H-pyrazol-4-yl)-3-(4-(4′-(3-methylmorpholino)-5′,6′-dihydrospiro[cyclopropane-1,7′-pyrano[2,3-d]pyrimidine]-2′-yl)phenyl)urea] | 29 | 1 nM |
| C[C@H]1COCCN1c1nc(-c2ccc(NC(=O)NCCC#N)cc2)nc2c1CCC1(CC1)O2 [Example 66, (S)-1-(2-cyanoethyl)-3-(4-(4′-(3-methylmorpholino)-5′,6′-dihydrospiro[cyclopropane-1,7′-pyrano[2,3-d]pyrimidine]-2′-yl)phenyl)urea] | 99 | 2 nM |
| Cc1nnc(NC(=O)Nc2ccc(-c3nc4c(c(N5CCOC[C@@H]5C)n3)COCC4)cc2)o1 [Example 27, (S)-1-(5-methyl-1,3,4-oxadiazol-2-yl)-3-(4-(4-(3-methylmorpholino)-7,8-dihydro-5H-pyrano[4,3-d]pyrimidin-2-yl)phenyl)urea] | 313 | 26 nM |
| CC[C@H]1COCCN1c1nc(-c2ccc(Nc3cccc(=O)[nH]3)cc2)nc2c1COCC2 [Example 5, (S)-6-(4-(4-(3-ethylmorpholino)-7,8-dihydro-5H-pyrano[4,3-d]pyrimidin-2-yl)phenylamino)pyridin-2(1H)-one] | 297 | 2 nM |
| C[C@H]1COCCN1c1nc(-c2ccc(NC(=O)NC3COC3)cc2)nc2c1CCCO2 [Example 32, (S)-1-(4-(4-(3-methylmorpholino)-6,7-dihydro-5H-pyrano[2,3-d]pyrimidin-2-yl)phenyl)-3-(oxetan-3-yl)urea] | 325 | 4 nM |
| C[C@H]1COCCN1c1nc(-c2ccc(NC(=O)NCCO)cc2)nc2c1COCC2 [Example 24, (S)-1-(2-hydroxyethyl)-3-(4-(4-(3-methylmorpholino)-7,8-dihydro-5H-pyrano[4,3-d]pyrimidin-2-yl)phenyl)urea] | 541 | 3 nM |
| CC1(C)OCc2c(N3C[C@H]4C[C@@H]3CO4)nc(-c3cnc(N)nc3)nc21 [Example 105, 5-(4-((1R,4R)-2-oxa-5-azabicyclo[2.2.1]heptan-5-yl)-7,7-dimethyl-5,7-dihydrofuro[3,4-d]pyrimidin-2-yl)pyrimidin-2-amine] | 17 | 88 nM |
| CCNC(=O)Nc1ccc(-c2nc3c(c(N4[C@@H]5CC[C@H]4COC5)n2)COC3)cc1 [Example 98, 1-(4-(4-((1R,5S)-3-oxa-8-azabicyclo[3.2.1]octan-8-yl)-5,7-dihydrofuro[3,4-d]pyrimidin-2-yl)phenyl)-3-ethylurea] | 331 | 8 nM |
| CCNC(=O)Nc1ccc(-c2nc(N3CCOC[C@@H]3C)c3c(n2)[C@](C)(CCN2CCC2)OC3)cc1 [Example 79 er (S), 1-(4-((S)-7-(2-(azetidin-1-yl)ethyl)-7-methyl-4-((S)-3-methylmorpholino)-5,7-dihydrofuro[3,4-d]pyrimidin-2-yl)phenyl)-3-ethylurea] | 774 | 31 nM |
| CC1(C)OCc2c(N3CCOCC3)nc(-c3ccc4c(N)noc4c3)nc21 [Example 116, 6-(7,7-dimethyl-4-morpholino-5,7-dihydrofuro[3,4-d]pyrimidin-2-yl)benzo[d]isoxazol-3-amine] | 2100 | 17 nM |
| CCCC1(C)OCc2c(N3CCOC[C@@H]3C)nc(-c3ccc(NC(=O)NCC)cc3)nc21 (stereo partly drawn) [Example 83, 1-ethyl-3-(4-(7-methyl-4-((S)-3-methylmorpholino)-7-propyl-5,7-dihydrofuro[3,4-d]pyrimidin-2-yl)phenyl)urea] | 84 | 2 nM |
| CCNC(=O)Nc1ccc(-c2nc3c(c(N4CCOC[C@@H]4C)n2)COC3)cc1 [Example 96, (S)-1-ethyl-3-(4-(4-(3-methylmorpholino)-5,7-dihydrofuro[3,4-d]pyrimidin-2-yl)phenyl)urea] | 28 | 9 nM |
| C[C@H]1COCCN1c1nc(-c2ccc(NC(=O)NC3(CO)CC3)cc2)nc2c1CCC1(CC1)O2 [Example 70, (S)-1-(1-(hydroxymethyl)cyclopropyl)-3-(4-(4′-(3-methylmorpholino)-5′,6′-dihydrospiro[cyclopropane-1,7′-pyrano[2,3-d]pyrimidine]-2′-yl)phenyl)urea] | 1600 | 20 nM |
| CCNC(=O)Nc1ccc(-c2nc3c(c(N4CCOCC4)n2)CCC2(CC2)O3)cc1 [Example 14, 1-ethyl-3-(4-(4′-morpholino-5′,6′-dihydrospiro[cyclopropane-1,7′-pyrano[2,3-d]pyrimidine]-2′-yl)phenyl)urea] | 84 | 3 nM |
| CC1(C)OCc2c(N3CCOCC3)nc(-c3ccc4nc(N)oc4c3)nc21 [Example 115, 6-(7,7-dimethyl-4-morpholino-5,7-dihydrofuro[3,4-d]pyrimidin-2-yl)benzo[d]oxazol-2-amine] | 146 | 269 nM |
| CC[C@H]1COCCN1c1nc(-c2cnc(N)nc2)nc2c1CCCO2 [Example 128, (S)-5-(4-(3-ethylmorpholino)-6,7-dihydro-5H-pyrano[2,3-d]pyrimidin-2-yl)pyrimidin-2-amine] | 1200 | 103 nM |
| C[C@H]1COCCN1c1nc(-c2ccc(NC(=O)NCCS(C)(=O)=O)cc2)nc2c1COCC2 [Example 59, (S)-1-(4-(4-(3-methylmorpholino)-7,8-dihydro-5H-pyrano[4,3-d]pyrimidin-2-yl)phenyl)-3-(2-(methylsulfonyl)ethyl)urea] | 4000 | 46 nM |
| C[C@H]1COCCN1c1nc(-c2ccc(Nc3nccc(=O)[nH]3)cc2)nc2c1COC(CO)C2 (stereo partly drawn) [2-(4-(7-(hydroxymethyl)-4-((S)-3-methylmorpholino)-7,8-dihydro-5H-pyrano[4,3-d]pyrimidin-2-yl)phenylamino)pyrimidin-4(3H)-one] | 2800 | 4 nM |
| Cn1ccc(NC(=O)Nc2ccc(-c3nc4c(c(N5CCOCC5)n3)CCC3(CC3)O4)cc2)n1 [Example 44, 1-(1-methyl-1H-pyrazol-3-yl)-3-(4-(4′-morpholino-5′,6′-dihydrospiro[cyclopropane-1,7′-pyrano[2,3-d]pyrimidine]-2′-yl)phenyl)urea] | 329 | 2 nM |
| C=CC[C@]1(C)OCc2c(N3CCOCC3)nc(-c3ccc(NC(=O)NCC)cc3)nc21 [Example 73 eb (S), (S)-1-(4-(7-allyl-7-methyl-4-morpholino-5,7-dihydrofuro[3,4-d]pyrimidin-2-yl)phenyl)-3-ethylurea] | 37.6 | 2 nM |
| CC1(C)OCc2c(N3CCOCC3)nc(-c3ccc(N)nc3)nc21 [Example 102, 5-(7,7-dimethyl-4-morpholino-5,7-dihydrofuro[3,4-d]pyrimidin-2-yl)pyridin-2-amine] | 159 | 17 nM |
| Cc1coc(NC(=O)Nc2ccc(-c3nc4c(c(N5CCOC[C@@H]5C)n3)CCC3(CC3)O4)cc2)n1 [Example 53, (S)-1-(4-(4′-(3-methylmorpholino)-5′,6′-dihydrospiro[cyclopropane-1,7′-pyrano[2,3-d]pyrimidine]-2′-yl)phenyl)-3-(4-methyloxazol-2-yl)urea] | 233 | 1 nM |
| CCC[C@]1(C)OCc2c(N3CCOCC3)nc(-c3ccc(NC(=O)NCC)cc3)nc21 [Example 73 ef (S), (S)-1-ethyl-3-(4-(7-methyl-4-morpholino-7-propyl-5,7-dihydrofuro[3,4-d]pyrimidin-2-yl)phenyl)urea] | 35 | 2 nM |
| CC1(C)OCc2c(N3CCOCC3)nc(-c3ccc4onc(N)c4c3)nc21 [Example 117, 5-(7,7-dimethyl-4-morpholino-5,7-dihydrofuro[3,4-d]pyrimidin-2-yl)benzo[d]isoxazol-3-amine] | 1200 | 567 nM |
| CCNC(=O)Nc1ccc(-c2nc3c(c(N4CCOC[C@@H]4C)n2)COC(C)(C)C3)cc1 [(S)-1-(4-(7,7-dimethyl-4-(3-methylmorpholino)-7,8-dihydro-5H-pyrano[4,3-d]pyrimidin-2-yl)phenyl)-3-ethylurea] | 50 | 3 nM |
| CC1(C)OCc2c(N3C[C@H]4CC[C@@H](C3)O4)nc(-c3cnc(N)nc3)nc21 [Example 107, 5-(4-((1R,5S)-8-oxa-3-azabicyclo[3.2.1]octan-3-yl)-7,7-dimethyl-5,7-dihydrofuro[3,4-d]pyrimidin-2-yl)pyrimidin-2-amine] | 231 | 10 nM |
| C[C@H]1COCCN1c1nc(-c2ccc3oc(N)nc3c2)nc2c1COC2(C)C [Example 123, (S)-5-(7,7-dimethyl-4-(3-methylmorpholino)-5,7-dihydrofuro[3,4-d]pyrimidin-2-yl)benzo[d]oxazol-2-amine] | 302 | 43 nM |
| C[C@H]1COCCN1c1nc(-c2ccc(NC(=O)Nc3cnn(C)c3)cc2)nc2c1CCCO2 [Example 31, (S)-1-(1-methyl-1H-pyrazol-4-yl)-3-(4-(4-(3-methylmorpholino)-6,7-dihydro-5H-pyrano[2,3-d]pyrimidin-2-yl)phenyl)urea] | 57 | 2 nM |
| C[C@H]1COCCN1c1nc(-c2ccc(NC(=O)Nc3ccn(C)n3)cc2)nc2c1CCCO2 [Example 30, (S)-1-(1-methyl-1H-pyrazol-3-yl)-3-(4-(4-(3-methylmorpholino)-6,7-dihydro-5H-pyrano[2,3-d]pyrimidin-2-yl)phenyl)urea] | 172 | 1 nM |
